We go through eight molecules from patent US7432291B2, “Ether derivatives” (Hoffman-La Roche Inc., priority 2004, dated 2008).

In one data set the target is T1, HER2 (pY 1248) in Calu3 cells (Homo sapiens, UniProt P04626).
T1 construct: endogenous in cells; host or cells: Calu-3 (HTB-55)
T1 sequence (P04626 23-1255): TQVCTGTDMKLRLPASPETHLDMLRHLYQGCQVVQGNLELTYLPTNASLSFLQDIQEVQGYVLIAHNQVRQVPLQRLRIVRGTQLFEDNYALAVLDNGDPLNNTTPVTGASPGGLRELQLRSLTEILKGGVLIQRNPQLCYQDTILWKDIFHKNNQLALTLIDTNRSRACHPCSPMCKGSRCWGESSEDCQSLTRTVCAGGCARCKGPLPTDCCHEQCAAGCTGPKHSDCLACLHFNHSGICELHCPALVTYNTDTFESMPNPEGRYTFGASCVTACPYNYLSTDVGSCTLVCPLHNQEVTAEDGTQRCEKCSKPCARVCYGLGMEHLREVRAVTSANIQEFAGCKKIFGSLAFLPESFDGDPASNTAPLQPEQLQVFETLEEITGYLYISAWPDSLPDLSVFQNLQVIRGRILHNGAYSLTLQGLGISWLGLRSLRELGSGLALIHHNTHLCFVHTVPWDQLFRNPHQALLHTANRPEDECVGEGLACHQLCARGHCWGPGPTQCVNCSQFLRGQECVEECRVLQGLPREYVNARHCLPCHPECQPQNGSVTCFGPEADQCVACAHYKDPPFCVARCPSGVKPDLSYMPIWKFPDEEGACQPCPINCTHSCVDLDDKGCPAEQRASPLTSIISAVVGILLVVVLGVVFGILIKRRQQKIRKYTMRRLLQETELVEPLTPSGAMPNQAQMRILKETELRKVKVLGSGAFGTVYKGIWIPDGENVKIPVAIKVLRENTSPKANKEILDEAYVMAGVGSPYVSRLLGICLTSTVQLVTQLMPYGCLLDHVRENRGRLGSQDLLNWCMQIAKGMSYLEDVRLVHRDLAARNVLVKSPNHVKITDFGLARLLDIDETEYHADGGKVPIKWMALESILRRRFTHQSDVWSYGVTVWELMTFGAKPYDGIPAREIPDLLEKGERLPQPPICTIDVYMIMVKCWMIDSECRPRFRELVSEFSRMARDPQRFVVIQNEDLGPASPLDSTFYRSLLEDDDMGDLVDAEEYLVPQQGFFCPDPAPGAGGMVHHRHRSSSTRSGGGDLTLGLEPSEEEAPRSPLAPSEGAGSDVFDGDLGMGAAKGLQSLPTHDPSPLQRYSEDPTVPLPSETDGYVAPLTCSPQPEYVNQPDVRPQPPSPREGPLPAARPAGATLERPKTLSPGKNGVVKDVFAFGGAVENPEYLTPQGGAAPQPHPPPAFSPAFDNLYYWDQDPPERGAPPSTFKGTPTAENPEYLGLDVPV
Briefly: Inhibition of HER2 phosphorylation in Calu3 tumor cell line. In kind it is cell-based. The conditions noted are these: Calu-3, compound concentration 1 μM, 16 h incubation, percentage of the DMSO treated control, read-out: Percent inhibition of HER2-phosphorylation. The protocol:
Inhibition of HER2 Phosphorylation in Calu3 Tumor Cell Line
2×10^5 Calu3 cells [Calu-3 (HTB-55) cells available from ATTC] per well were plated 12-well plate. After 4 days cells were starved for 16 h in DMEM/0.5% FCS/1% Glutamine. During this time cells were incubated with 1 μM of the compound. Afterwards cells were lysed in lyses buffer containing 1% Triton, 10% Glycerol, 1 mM EGTA, 1.5 mM MgCl2, 150 mM NaCl, 50 mM Hepes pH 7.5, 1 mM PMSF, 10 μg/mL Aprotinin and […] Orthovanadate. Cell lysates were analyzed on a SDS PAGE and after transfer to a nitrocellulose membrane detected with an antibody specifically recognizing the pY 1248 in HER2. Inhibition of HER2 phosphorylation is calculated as percentage of the DMSO treated control. This percentage was calculated according to the following formula: Inhibition in %=100−(Phosphorylated-HER2-Signal of Test Sample*100/Phosphorylated-HER2-Signal DMSO-control).
One may read the inhibition as the drop in the measured response relative to a control, in per cent. Consider `FC(F)Oc1ccc(/C=C/c2nc(COc3ccc(COCCn4ccnn4)cc3)co2)cc1` [example 1, 1-[2-(4-{2-[2-(E)-(4-Difluoromethoxy-phenyl)-vinyl]-oxazol-4-ylmethoxy}-benzyloxy)-ethyl]-1H-[1,2,3]triazole], for which the inhibition at 1 µM was 69.6%.

`FC1(F)Oc2ccc(/C=C/c3nc(COc4ccc(COCCn5ccnn5)cc4)co3)cc2O1` [example 2, 1-[2-(4-{2-[2-(E)-(2,2-Difluoro-benzo[1,3]dioxol-5-yl)-vinyl]-oxazol-4-ylmethoxy}-benzyloxy)-ethyl]-1H-[1,2,3]triazole]: the inhibition at 1 µM came to 85.8%. Same read-out and setting: the value for `FC(F)(F)Sc1ccc(/C=C/c2nc(COc3ccc(COCCn4ccnn4)cc3)co2)cc1` [example 3, 1-[2-(4-{2-[2-(E)-(4-Trifluoromethylsulfanyl-phenyl)-vinyl]-oxazol-4-ylmethoxy}-benzyloxy)-ethyl]-1H-[1,2,3]triazole] was 73.4%. On to `FC(F)(F)Oc1ccc(/C=C/c2nc(COc3ccc(COCCn4ccnn4)cc3)co2)cc1` [example 4, 1-[2-(4-{2-[2-(E)-(4-Trifluoromethoxy-phenyl)-vinyl]-oxazol-4-ylmethoxy}-benzyloxy)-ethyl]-1H-[1,2,3]triazole], for which the inhibition at 1 µM was determined as 78.6%. The same measure, in the same setting: the value for `FC(F)(F)c1ccc(/C=C/c2nc(COc3ccc(COCCn4ccnn4)cc3)co2)cc1` [reference compound 2, 1-[2-(4-{2-[(E)-2-(4-Trifluoromethyl-phenyl)-vinyl]-oxazol-4-ylmethoxy}-benzyloxy)-ethyl]-1H-[1,2,3]triazole, reference compound] was 54%.

Test system in the next data set: not given
Assay: not given
Details: not given
By melting point is commonly meant the temperature of the solid-liquid transition. `Cc1cc(OCc2coc(C=Cc3ccc(OC(F)F)cc3)n2)ccc1COCCn1ccnn1` [Example 7, 1-[2-(4-{2-[2-(4-Difluoromethoxy-phenyl)-vinyl]-oxazol-4-ylmethoxy}-2-methyl-benzyloxy)-ethyl]-1H-[1,2,3]triazole] yielded a melting point of 119 to 120 °C. The same measure, in the same setting: the result for `Cc1cc(OCc2coc(C=Cc3ccc(SC(F)(F)F)cc3)n2)ccc1COCCn1ccnn1` [Example 8, 1-[2-(2-Methyl-4-{2-[2-(4-trifluoromethylsulfanyl-phenyl)-vinyl]-oxazol-4-ylmethoxy}-benzyloxy)-ethyl]-1H-[1,2,3]triazole] reads 102 °C; that for `Cc1cc(OCc2coc(C=Cc3ccc(OC(F)(F)F)cc3)n2)ccc1COCCn1ccnn1` [Example 9, 1-[2-(2-Methyl-4-{2-[2-(4-trifluoromethoxy-phenyl)-vinyl]-oxazol-4-ylmethoxy}-benzyloxy)-ethyl]-1H-[1,2,3]triazole], 84 to 85 °C.
